Test results taken from ChEMBL document CHEMBL3774345, “Synthesis of new diarylamides with pyrimidinyl pyridine scaffold and evaluation of their anti-proliferative effect on cancer cell lines” (Bioorg Med Chem Lett, 2016).

What was measured:
Format in all cases: functional
[1] = Cytotoxicity against human SKOV3 cells assessed as cell growth at 10 uM after 24 hrs by SRB assay; details: SK-OV-3, 24 h, read-out: Activity
MDA-MB-468 = assay: Cytotoxicity against human MDA-MB-468 cells assessed as cell growth at 10 uM after 24 hrs by SRB assay; details: MDA-MB-468, 24 h, read-out: Activity
NCI-H522 [2] = assay: Cytotoxicity against human NCI-H522 cells assessed as cell growth at 10 uM after 24 hrs by SRB assay; details: NCI-H522, 24 h, read-out: Activity
[3] = Cytotoxicity against human SNB19 cells assessed as cell growth at 10 uM after 24 hrs by SRB assay; details: SNB-19, 24 h, read-out: Activity
U-251 = assay: Cytotoxicity against human U251 cells assessed as cell growth at 10 uM after 24 hrs by SRB assay; details: U-251, 24 h, read-out: Activity
[4] = Cytotoxicity against human HCT116 cells assessed as cell growth at 10^-6 M after 24 hrs by SRB assay; details: HCT-116, 24 h, read-out: Activity
SK-MEL-5 [5] = assay: Cytotoxicity against human SK-MEL-5 cells assessed as cell growth at 10 uM after 24 hrs by SRB assay; details: SK-MEL-5, 24 h, read-out: Activity
A498 [6] = assay: Cytotoxicity against human A498 cells assessed as cell growth at 10 uM after 24 hrs by SRB assay; details: A498, 24 h, read-out: Activity
T47D [7] = assay: Cytotoxicity against human T47D cells assessed as cell growth at 10^-4 M after 24 hrs by SRB assay; details: read-out: Activity
[8] = Cytotoxicity against human HCT15 cells assessed as cell growth at 10^-4 M after 24 hrs by SRB assay; details: HCT-15, 24 h, read-out: Activity
[9] = Cytotoxicity against human HCT116 cells assessed as cell growth at 10^-5 M after 24 hrs by SRB assay; details: HCT-116, 24 h, read-out: Activity
ACHN = assay: Cytotoxicity against human ACHN cells assessed as cell growth at 10^-7 M after 24 hrs by SRB assay; details: read-out: Activity
[10] = Cytotoxicity against human MOLT4 cells assessed as cell growth at 10 uM after 24 hrs by SRB assay; details: MOLT-4, 24 h, read-out: Activity
[11] = Cytotoxicity against human Caki1 cells assessed as cell growth at 10 uM after 24 hrs by SRB assay; details: CAKI-1, 24 h, read-out: Activity
[12] = Cytotoxicity against human OVCAR8 cells assessed as cell growth at 10 uM after 24 hrs by SRB assay; details: OVCAR-8, 24 h, read-out: Activity
SR = assay: Cytotoxicity against human SR cells assessed as cell growth at 10 uM after 24 hrs by SRB assay; details: read-out: Activity
[13] = Cytotoxicity against human LOXIMVI cells assessed as cell growth at 10^-5 M after 24 hrs by SRB assay; details: LOX IMVI, read-out: Activity
[14] = Cytotoxicity against human LOXIMVI cells assessed as cell growth at 10 uM after 24 hrs by SRB assay; details: LOX IMVI, read-out: Activity
786-0 = assay: Cytotoxicity against human 786-0 cells assessed as cell growth at 10 uM after 24 hrs by SRB assay; details: 786-0, 24 h, read-out: Activity
CCRF-CEM = assay: Cytotoxicity against human CCRF-CEM cells assessed as cell growth at 10^-5 M after 24 hrs by SRB assay; details: read-out: Activity
[15] = Cytotoxicity against human UO31 cells assessed as cell growth at 10 uM after 24 hrs by SRB assay; details: UO-31, 24 h, read-out: Activity
[16] = Cytotoxicity against human TK10 cells assessed as cell growth at 10 uM after 24 hrs by SRB assay; details: TK-10, 24 h, read-out: Activity
KM12 [17] = assay: Cytotoxicity against human KM12 cells after 24 hrs by SRB assay; details: KM12, 24 h
NCI-H23 = assay: Cytotoxicity against human NCI-H23 cells assessed as cell growth at 10^-7 M after 24 hrs by SRB assay; details: NCI-H23, 24 h, read-out: Activity
HT-29 = assay: Cytotoxicity against human HT-29 cells assessed as cell growth at 10 uM after 24 hrs by SRB assay; details: HT-29, 24 h, read-out: Activity
T47D [18] = assay: Cytotoxicity against human T47D cells assessed as cell growth at 10 uM after 24 hrs by SRB assay; details: read-out: Activity
KM12 [19] = assay: Cytotoxicity against human KM12 cells assessed as cell growth at 10 uM after 24 hrs by SRB assay; details: KM12, 24 h, read-out: Activity
A549 = assay: Cytotoxicity against human A549 cells assessed as cell growth at 10 uM after 24 hrs by SRB assay; details: A549, 24 h, read-out: Activity
[20] = Cytotoxicity against human HCC2998 cells assessed as cell growth at 10 uM after 24 hrs by SRB assay; details: HCC 2998, 24 h, read-out: Activity
MDA-MB-231 = assay: Cytotoxicity against human MDA-MB-231 cells assessed as growth inhibition at 10 uM after 24 hrs by SRB assay; details: MDA-MB-231, 24 h, read-out: GI
SK-MEL-5 [21] = assay: Cytotoxicity against human SK-MEL-5 cells assessed as growth inhibition at 10 uM after 24 hrs by SRB assay; details: SK-MEL-5, 24 h, read-out: GI
NCI-H226 = assay: Cytotoxicity against human NCI-H226 cells assessed as growth inhibition at 10 uM after 24 hrs by SRB assay; details: NCI-H226, 24 h, read-out: GI
K562 = assay: Cytotoxicity against human K562 cells assessed as growth inhibition at 10 uM after 24 hrs by SRB assay; details: K562, 24 h, read-out: GI
T47D [22] = assay: Cytotoxicity against human T47D cells assessed as growth inhibition at 10 uM after 24 hrs by SRB assay; details: read-out: GI
[23] = Cytotoxicity against human UO31 cells assessed as growth inhibition at 10 uM after 24 hrs by SRB assay; details: UO-31, 24 h, read-out: GI
A498 [24] = assay: Cytotoxicity against human A498 cells assessed as growth inhibition at 10 uM after 24 hrs by SRB assay; details: A498, 24 h, read-out: GI
[25] = Cytotoxicity against human RPMI8226 cells assessed as growth inhibition at 10 uM after 24 hrs by SRB assay; details: RPMI-8226, 24 h, read-out: GI
[26] = Cytotoxicity against human HOP92 cells assessed as growth inhibition at 10 uM after 24 hrs by SRB assay; details: HOP-92, 24 h, read-out: GI
NCI-H522 [27] = assay: Cytotoxicity against human NCI-H522 cells assessed as growth inhibition at 10 uM after 24 hrs by SRB assay; details: NCI-H522, 24 h, read-out: GI

SMILES	growth at 10 µM [1] [%]	growth at 10 µM (MDA-MB-468) [%]	growth at 10 µM (NCI-H522 [2]) [%]	growth at 10 µM [3] [%]	growth at 10 µM (U-251) [%]	growth at 10 µM (SK-MEL-5 [5]) [%]	growth at 10 µM (A498 [6]) [%]	growth at 10 µM [10] [%]	growth at 10 µM [11] [%]	growth at 10 µM [12] [%]	growth at 10 µM (SR) [%]	growth at 10 µM [14] [%]	growth at 10 µM (786-0) [%]	growth at 10 µM [15] [%]	growth at 10 µM [16] [%]	growth at 10 µM (HT-29) [%]	growth at 10 µM (T47D [18]) [%]	growth at 10 µM (KM12 [19]) [%]	growth at 10 µM (A549) [%]	growth at 10 µM [20] [%]	also measured
O=C(Nc1cc(-c2cccnc2)nc(NCCCN2CCOCC2)n1)c1cc(Br)cc(C(F)(F)F)c1	92.3	52.8	60.2	69.6	33.1	3.78	53.7	45.1	61.8	58.5	4.25	-16.8	51.8	42	65.4	8.99	46.4	80	67.9	37.8	growth at 1 µM [4]: 94%; growth at 100 µM (T47D [7]): -83%; growth at 100 µM [8]: -96%; growth at 10 µM [9]: -44%; growth at 0.1 µM (ACHN): 100%; growth at 10 µM [13]: -93%; growth at 10 µM (CCRF-CEM): 6%; GI50 (KM12 [17]; read-out: GI50): 3.62 µM; CC50 (KM12 [17]; read-out: LC50 (the source's name)): 41 µM; TGI (KM12 [17]; read-out: TGI): 13.6 µM; GI50 (KM12 [17]; read-out: pGI50 (converted)): 3.63 µM; CC50 (KM12 [17]; read-out: pLC50 (the source's name) (converted)): 40.7 µM; TGI (KM12 [17]; read-out: pTGI (converted)): 13.5 µM; growth at 0.1 µM (NCI-H23): 98%
COc1cc(OC)cc(C(=O)Nc2cc(-c3cccnc3)nc(NCCCN3CCOCC3)n2)c1	93.9	83.2	92	98.7	90.5	68.3	83.3	82.3	101	91.8	57.9	88.1	84	53.6	95.5	85.2	72.8	104	92.6	123	inhibition of growth at 10 µM (MDA-MB-231): 20.4%; inhibition of growth at 10 µM (SK-MEL-5 [21]): 31.7%; inhibition of growth at 10 µM (NCI-H226): 32.3%; inhibition of growth at 10 µM (K562): 25.9%; inhibition of growth at 10 µM (T47D [22]): 27.2%; inhibition of growth at 10 µM [23]: 46.4%
Cc1cc(Cl)ccc1C(=O)Nc1cc(-c2cccnc2)nc(NCCCN2CCOCC2)n1	93.7	88.5	82.8	89.8	96.2	92.7	95.2	98	101	96.9	98.7	109	77.2	89.2	87.2	95.7	96.4	101	87.7	100	inhibition of growth at 10 µM (A498 [24]): 22.8%; inhibition of growth at 10 µM (NCI-H226): 22.4%
COCCCNc1nc(NC(=O)c2cc(OC)cc(OC)c2)cc(-c2cccnc2)n1	105	94.8	76.5	98.3	96.8	72.4	67.7	83.5	99.4	79.3	80.6	94.5	83.3	56.7	86.7	95.5	63.8	103	91.2	110	inhibition of growth at 10 µM (MDA-MB-231): 30.9%; inhibition of growth at 10 µM [25]: 30.6%; inhibition of growth at 10 µM (SK-MEL-5 [21]): 27.6%; inhibition of growth at 10 µM [26]: 47.4%; inhibition of growth at 10 µM (NCI-H522 [27]): 23.5%; inhibition of growth at 10 µM (T47D [22]): 36.2%; inhibition of growth at 10 µM [23]: 43.3%
O=C(Nc1cc(-c2cccnc2)nc(NCCCN2CCOCC2)n1)c1ccc(F)cc1Cl	101	93.5	87.1	94.2	92	88	81.2	98.4	90.3	94.2	92.8	96.5	89.2	77	97.1	87.3	99.5	104	102	98.4	inhibition of growth at 10 µM [23]: 23%
COCCCNc1nc(NC(=O)c2ccc(Cl)cc2C)cc(-c2cccnc2)n1	98.4	111	78.6	91.7	112	84.1	109	93.9	99.5	94.2	110	107	85.4	95.9	88.5	105	89.4	104	79.8	103	inhibition of growth at 10 µM [26]: 33%; inhibition of growth at 10 µM (NCI-H522 [27]): 21.4%
COCCCNc1nc(NC(=O)c2cc(Br)cc(C(F)(F)F)c2)cc(-c2cccnc2)n1	92.2	82.8	83.5	95.9	85.9	70.6	76.2	80.1	81.4	87.5	83.4	104	85.8	60.5	95.8	83.7	65	105	82	114	inhibition of growth at 10 µM (A498 [24]): 23.8%; inhibition of growth at 10 µM (MDA-MB-231): 24.2%; inhibition of growth at 10 µM [25]: 34.4%; inhibition of growth at 10 µM (SK-MEL-5 [21]): 29.5%; inhibition of growth at 10 µM [26]: 42.1%; inhibition of growth at 10 µM (K562): 26.7%; inhibition of growth at 10 µM (T47D [22]): 35%; inhibition of growth at 10 µM [23]: 39.5%
